What was measured:
CDK11A (human) = CDK11A (human) (UniProt Q9UQ88); assay: KINOMEscan competition binding; conditions: compound 10.0 µM
TTK (human) [1] = molecular target: TTK (human) (UniProt P33981); assay: SelectScreen, TR FRET
GAK (human) = GAK (human) (UniProt O14976); assay: KINOMEscan competition binding; conditions: compound 10.0 µM
DAPK3 (human) = DAPK3 (human) (UniProt O43293); assay: KINOMEscan competition binding; conditions: compound 10.0 µM
STK33 (human) = STK33 (human) (UniProt Q9BYT3); assay: KINOMEscan competition binding; conditions: compound 10.0 µM
Sequence of STK33 (human) (Q9BYT3 whole entry, looked up): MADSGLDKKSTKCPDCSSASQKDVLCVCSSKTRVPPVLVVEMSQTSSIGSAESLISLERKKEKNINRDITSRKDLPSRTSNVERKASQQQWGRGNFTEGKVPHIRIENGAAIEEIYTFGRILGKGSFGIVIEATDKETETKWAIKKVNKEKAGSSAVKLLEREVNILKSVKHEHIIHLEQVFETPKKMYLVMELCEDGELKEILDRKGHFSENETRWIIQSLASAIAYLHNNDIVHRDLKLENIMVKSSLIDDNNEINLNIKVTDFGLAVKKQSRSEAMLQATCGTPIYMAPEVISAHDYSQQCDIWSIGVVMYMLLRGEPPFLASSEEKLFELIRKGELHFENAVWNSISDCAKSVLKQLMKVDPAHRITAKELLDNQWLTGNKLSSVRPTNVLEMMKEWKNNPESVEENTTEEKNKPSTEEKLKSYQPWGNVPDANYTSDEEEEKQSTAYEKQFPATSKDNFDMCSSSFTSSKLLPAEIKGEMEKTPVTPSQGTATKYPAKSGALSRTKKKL

FER (human) = FER (human) (UniProt P16591); assay: KINOMEscan competition binding; conditions: compound 10.0 µM
[2] = molecular target: JAK1 JH2 pseudokinase (human) (UniProt P23458); assay: KINOMEscan competition binding; conditions: compound 10.0 µM
RPS6KA6 KD2 (human) = RPS6KA6 KD2 (human) (UniProt Q9UK32); assay: KINOMEscan competition binding; conditions: compound 10.0 µM
Sequence of RPS6KA6 KD2 (human) (Q9UK32 whole entry, looked up): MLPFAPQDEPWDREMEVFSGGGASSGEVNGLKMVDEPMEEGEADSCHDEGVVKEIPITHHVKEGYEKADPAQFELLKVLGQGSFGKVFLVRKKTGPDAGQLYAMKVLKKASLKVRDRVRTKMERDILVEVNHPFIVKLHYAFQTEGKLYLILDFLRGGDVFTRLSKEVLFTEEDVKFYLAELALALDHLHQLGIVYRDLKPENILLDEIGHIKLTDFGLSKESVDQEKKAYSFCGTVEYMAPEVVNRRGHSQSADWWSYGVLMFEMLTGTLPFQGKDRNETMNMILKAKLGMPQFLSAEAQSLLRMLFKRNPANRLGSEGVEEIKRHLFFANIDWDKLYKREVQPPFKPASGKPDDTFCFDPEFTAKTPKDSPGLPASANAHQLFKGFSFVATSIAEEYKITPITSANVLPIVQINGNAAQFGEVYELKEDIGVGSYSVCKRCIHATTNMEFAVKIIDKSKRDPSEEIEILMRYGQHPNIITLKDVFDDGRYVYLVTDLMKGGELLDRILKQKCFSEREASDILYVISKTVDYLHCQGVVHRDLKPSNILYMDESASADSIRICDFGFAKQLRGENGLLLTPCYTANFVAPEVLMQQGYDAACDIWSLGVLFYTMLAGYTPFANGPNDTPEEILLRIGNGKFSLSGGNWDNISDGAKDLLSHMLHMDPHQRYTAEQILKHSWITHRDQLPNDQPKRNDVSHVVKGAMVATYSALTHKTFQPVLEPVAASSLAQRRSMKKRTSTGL

DCLK2 (human) = DCLK2 (human) (UniProt Q8N568); assay: KINOMEscan competition binding; conditions: compound 10.0 µM
Sequence of DCLK2 (human) (Q8N568 whole entry, looked up): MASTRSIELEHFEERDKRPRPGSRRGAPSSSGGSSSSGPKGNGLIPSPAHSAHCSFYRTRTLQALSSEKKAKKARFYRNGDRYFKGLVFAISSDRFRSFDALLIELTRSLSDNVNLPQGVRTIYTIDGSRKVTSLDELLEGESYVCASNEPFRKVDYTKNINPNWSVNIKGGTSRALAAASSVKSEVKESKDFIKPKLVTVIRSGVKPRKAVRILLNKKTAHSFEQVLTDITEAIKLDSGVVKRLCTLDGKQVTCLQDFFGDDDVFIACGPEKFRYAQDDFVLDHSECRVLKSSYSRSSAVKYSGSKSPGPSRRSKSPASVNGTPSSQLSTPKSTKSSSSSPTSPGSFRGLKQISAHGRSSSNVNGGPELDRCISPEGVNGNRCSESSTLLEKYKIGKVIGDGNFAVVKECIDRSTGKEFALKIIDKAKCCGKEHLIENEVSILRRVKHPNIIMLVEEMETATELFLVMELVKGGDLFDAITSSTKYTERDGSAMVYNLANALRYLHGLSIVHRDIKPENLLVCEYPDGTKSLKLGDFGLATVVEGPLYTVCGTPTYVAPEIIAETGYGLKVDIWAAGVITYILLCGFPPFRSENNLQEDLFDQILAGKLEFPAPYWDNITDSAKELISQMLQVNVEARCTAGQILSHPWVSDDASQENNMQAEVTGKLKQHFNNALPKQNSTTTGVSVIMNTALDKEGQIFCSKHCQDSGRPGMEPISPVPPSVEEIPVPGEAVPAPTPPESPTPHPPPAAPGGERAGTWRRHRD

DAPK1 (human) = DAPK1 (human) (UniProt P53355); assay: KINOMEscan competition binding; conditions: compound 10.0 µM
INSRR (human) = INSRR (human) (UniProt P14616); assay: KINOMEscan competition binding; conditions: compound 10.0 µM
CLK2 (human) = CLK2 (human) (UniProt P49760); assay: KINOMEscan competition binding; conditions: compound 10.0 µM
RPS6KA2 KD2 (human) = RPS6KA2 KD2 (human) (UniProt Q15349); assay: KINOMEscan competition binding; conditions: compound 10.0 µM
Sequence of RPS6KA2 KD2 (human) (Q15349 whole entry, looked up): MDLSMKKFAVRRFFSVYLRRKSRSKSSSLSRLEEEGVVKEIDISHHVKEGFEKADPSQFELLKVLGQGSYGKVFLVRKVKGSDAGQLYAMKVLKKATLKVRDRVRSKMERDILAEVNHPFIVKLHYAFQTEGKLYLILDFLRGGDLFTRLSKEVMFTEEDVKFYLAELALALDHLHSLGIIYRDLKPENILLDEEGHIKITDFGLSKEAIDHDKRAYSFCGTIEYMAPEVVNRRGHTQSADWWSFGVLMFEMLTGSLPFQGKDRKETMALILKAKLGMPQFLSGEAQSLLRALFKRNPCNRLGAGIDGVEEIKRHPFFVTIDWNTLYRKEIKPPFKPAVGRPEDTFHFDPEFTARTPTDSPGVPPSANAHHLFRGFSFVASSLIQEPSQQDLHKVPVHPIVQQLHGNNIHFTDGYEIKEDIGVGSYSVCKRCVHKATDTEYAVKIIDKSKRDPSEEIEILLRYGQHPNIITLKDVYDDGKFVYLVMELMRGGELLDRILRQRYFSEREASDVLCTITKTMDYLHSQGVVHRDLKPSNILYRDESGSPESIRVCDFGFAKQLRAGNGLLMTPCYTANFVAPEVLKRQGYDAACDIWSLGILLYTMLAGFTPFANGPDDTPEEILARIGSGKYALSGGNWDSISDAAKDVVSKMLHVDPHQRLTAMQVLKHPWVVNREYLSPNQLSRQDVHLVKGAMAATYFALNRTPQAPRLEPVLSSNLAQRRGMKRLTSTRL

PLK1 (human) = PLK1 (human) (UniProt P53350); assay: KINOMEscan competition binding; conditions: compound 10.0 µM
CAMK2G (human) = CAMK2G (human) (UniProt Q13555); assay: KINOMEscan competition binding; conditions: compound 10.0 µM
CAMK1D (human) = CAMK1D (human) (UniProt Q8IU85); assay: KINOMEscan competition binding; conditions: compound 10.0 µM
MYLK (human) = MYLK (human) (UniProt Q15746); assay: KINOMEscan competition binding; conditions: compound 10.0 µM
PLK3 (human) = PLK3 (human) (UniProt Q9H4B4); assay: KINOMEscan competition binding; conditions: compound 10.0 µM
DCLK1 (human) = DCLK1 (human) (UniProt O15075); assay: KINOMEscan competition binding; conditions: compound 10.0 µM
Sequence of DCLK1 (human) (O15075 whole entry, looked up): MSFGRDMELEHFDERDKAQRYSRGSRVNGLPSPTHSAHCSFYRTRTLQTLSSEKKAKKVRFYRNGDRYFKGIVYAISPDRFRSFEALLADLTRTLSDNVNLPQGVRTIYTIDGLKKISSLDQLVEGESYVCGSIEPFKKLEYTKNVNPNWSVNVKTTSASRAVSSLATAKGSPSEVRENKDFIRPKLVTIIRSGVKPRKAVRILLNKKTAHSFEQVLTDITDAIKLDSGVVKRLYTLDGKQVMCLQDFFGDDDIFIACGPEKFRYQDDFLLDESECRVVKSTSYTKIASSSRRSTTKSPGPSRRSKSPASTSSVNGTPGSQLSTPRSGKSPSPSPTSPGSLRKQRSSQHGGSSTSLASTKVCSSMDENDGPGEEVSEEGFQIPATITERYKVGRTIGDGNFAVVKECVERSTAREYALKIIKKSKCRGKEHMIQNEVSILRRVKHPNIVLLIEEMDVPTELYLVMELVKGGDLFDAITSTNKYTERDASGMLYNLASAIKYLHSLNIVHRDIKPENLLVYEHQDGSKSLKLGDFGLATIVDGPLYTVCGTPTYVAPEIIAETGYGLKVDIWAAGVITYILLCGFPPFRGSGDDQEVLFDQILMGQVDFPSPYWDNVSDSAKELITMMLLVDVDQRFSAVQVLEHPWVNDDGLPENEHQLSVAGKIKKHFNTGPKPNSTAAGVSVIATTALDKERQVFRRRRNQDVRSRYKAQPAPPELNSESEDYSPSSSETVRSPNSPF

CAMK2A (human) = CAMK2A (human) (UniProt Q9UQM7); assay: KINOMEscan competition binding; conditions: compound 10.0 µM
CAMKK2 (human) = CAMKK2 (human) (UniProt Q96RR4); assay: KINOMEscan competition binding; conditions: compound 10.0 µM
Sequence of CAMKK2 (human) (Q96RR4 whole entry, looked up): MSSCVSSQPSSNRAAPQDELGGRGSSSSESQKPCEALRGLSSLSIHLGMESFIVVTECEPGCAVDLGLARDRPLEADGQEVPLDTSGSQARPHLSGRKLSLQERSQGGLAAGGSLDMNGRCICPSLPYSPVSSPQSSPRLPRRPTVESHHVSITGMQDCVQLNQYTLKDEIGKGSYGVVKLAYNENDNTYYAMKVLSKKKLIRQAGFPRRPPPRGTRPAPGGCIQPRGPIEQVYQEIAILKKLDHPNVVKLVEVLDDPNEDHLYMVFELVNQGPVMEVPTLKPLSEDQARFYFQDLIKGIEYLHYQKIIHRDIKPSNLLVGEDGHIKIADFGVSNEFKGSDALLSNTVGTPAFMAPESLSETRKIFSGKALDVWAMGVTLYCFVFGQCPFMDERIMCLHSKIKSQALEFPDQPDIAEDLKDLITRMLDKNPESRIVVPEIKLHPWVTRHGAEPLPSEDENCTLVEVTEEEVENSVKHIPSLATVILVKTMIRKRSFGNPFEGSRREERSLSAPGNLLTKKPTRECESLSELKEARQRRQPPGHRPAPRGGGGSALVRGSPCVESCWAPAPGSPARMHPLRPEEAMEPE

STK10 (human) = STK10 (human) (UniProt O94804); assay: KINOMEscan competition binding; conditions: compound 10.0 µM
RPS6KA1 KD2 (human) = RPS6KA1 KD2 (human) (UniProt Q15418); assay: KINOMEscan competition binding; conditions: compound 10.0 µM
IGF1R (human) = IGF1R (human) (UniProt P08069); assay: KINOMEscan competition binding; conditions: compound 10.0 µM
SLK (human) = SLK (human) (UniProt Q9H2G2); assay: KINOMEscan competition binding; conditions: compound 10.0 µM
PTK2B (human) = PTK2B (human) (UniProt Q14289); assay: KINOMEscan competition binding; conditions: compound 10.0 µM
TTK (human) [3] = molecular target: TTK (human) (UniProt P33981); assay: KINOMEscan competition binding; conditions: for kinase still bound, per cent of control: compound 10.0 µM
PTK2 (human) = PTK2 (human) (UniProt Q05397); assay: KINOMEscan competition binding; conditions: compound 10.0 µM
PRKD3 (human) = PRKD3 (human) (UniProt O94806); assay: KINOMEscan competition binding; conditions: compound 10.0 µM
ALK (human) = ALK (human) (UniProt Q9UM73); assay: KINOMEscan competition binding; conditions: compound 10.0 µM
CLK1 (human) = CLK1 (human) (UniProt P49759); assay: KINOMEscan competition binding; conditions: compound 10.0 µM
[4] = tested on: EGFR (human), P00533 [G719C; 746-750 del]; assay: KINOMEscan competition binding; conditions: compound 10.0 µM
[5] = tested on: EGFR (human), P00533 [747-751 del / S ins]; assay: KINOMEscan competition binding; conditions: compound 10.0 µM
[6] = tested on: EGFR (human), P00533 [A750P; 747-749 del]; assay: KINOMEscan competition binding; conditions: compound 10.0 µM
PLK4 (human) = PLK4 (human) (UniProt O00444); assay: KINOMEscan competition binding; conditions: compound 10.0 µM
[7] = tested on: EGFR (human), P00533 [P753S; 747-752 del]; assay: KINOMEscan competition binding; conditions: compound 10.0 µM
[8] = tested on: EGFR (human), P00533 [L861Q]; assay: KINOMEscan competition binding; conditions: compound 10.0 µM
ULK2 (human) = ULK2 (human) (UniProt Q8IYT8); assay: KINOMEscan competition binding; conditions: compound 10.0 µM
FLT3 (human) = FLT3 (human) (UniProt P36888); assay: KINOMEscan competition binding; conditions: compound 10.0 µM
MAPK7 (human) = MAPK7 (human) (UniProt Q13164); assay: KINOMEscan competition binding; conditions: compound 10.0 µM
TNK2 (human) = TNK2 (human) (UniProt Q07912); assay: KINOMEscan competition binding; conditions: compound 10.0 µM
[9] = tested on: FLT3 (human), P36888 [N841I]; assay: KINOMEscan competition binding; conditions: compound 10.0 µM
PIP5K1A (human) = PIP5K1A (human) (UniProt Q99755); assay: KINOMEscan competition binding; conditions: compound 10.0 µM
PTK6 (human) = PTK6 (human) (UniProt Q13882); assay: KINOMEscan competition binding; conditions: compound 10.0 µM
[10] = tested on: FLT3 (human), P36888 [D835Y]; assay: KINOMEscan competition binding; conditions: compound 10.0 µM
[11] = tested on: FLT3 (human), P36888 [K663Q]; assay: KINOMEscan competition binding; conditions: compound 10.0 µM
[12] = tested on: FLT3 (human), P36888 [D835H]; assay: KINOMEscan competition binding; conditions: compound 10.0 µM
MYLK4 (human) = MYLK4 (human) (UniProt Q86YV6); assay: KINOMEscan competition binding; conditions: compound 10.0 µM
DCLK3 (human) = DCLK3 (human) (UniProt Q9C098); assay: KINOMEscan competition binding; conditions: compound 10.0 µM
[13] = tested on: ABL1 (human), P00519 [F317I]; assay: KINOMEscan competition binding; conditions: compound 10.0 µM
[14] = tested on: FLT3 (human), P36888 [ITD]; assay: KINOMEscan competition binding; conditions: compound 10.0 µM

Sequence of TTK (human) (P33981 whole entry, looked up): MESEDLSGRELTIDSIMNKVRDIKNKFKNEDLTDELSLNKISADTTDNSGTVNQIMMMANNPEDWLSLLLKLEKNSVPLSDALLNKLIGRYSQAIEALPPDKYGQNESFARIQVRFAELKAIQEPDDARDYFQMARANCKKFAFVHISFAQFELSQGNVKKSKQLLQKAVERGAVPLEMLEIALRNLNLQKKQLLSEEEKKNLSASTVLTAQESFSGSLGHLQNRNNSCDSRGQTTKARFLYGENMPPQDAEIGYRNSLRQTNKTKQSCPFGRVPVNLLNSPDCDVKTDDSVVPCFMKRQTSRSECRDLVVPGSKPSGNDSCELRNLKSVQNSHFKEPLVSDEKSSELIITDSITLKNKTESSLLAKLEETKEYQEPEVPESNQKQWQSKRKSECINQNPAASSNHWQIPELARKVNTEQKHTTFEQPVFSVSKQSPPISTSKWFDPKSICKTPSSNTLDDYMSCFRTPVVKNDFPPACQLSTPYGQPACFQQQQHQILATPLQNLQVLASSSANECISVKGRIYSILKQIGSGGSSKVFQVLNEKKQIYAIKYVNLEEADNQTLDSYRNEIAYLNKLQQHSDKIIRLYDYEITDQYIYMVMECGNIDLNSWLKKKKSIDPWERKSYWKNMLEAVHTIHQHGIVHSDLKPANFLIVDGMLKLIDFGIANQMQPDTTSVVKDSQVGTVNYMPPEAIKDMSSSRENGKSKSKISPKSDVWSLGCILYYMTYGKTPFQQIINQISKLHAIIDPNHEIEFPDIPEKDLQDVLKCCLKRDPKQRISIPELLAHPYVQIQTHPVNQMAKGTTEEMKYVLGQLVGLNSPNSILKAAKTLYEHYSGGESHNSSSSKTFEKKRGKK

SMILES	kinase still bound, per cent of control (GAK (human))	kinase still bound, per cent of control (STK33 (human))	kinase still bound, per cent of control (RPS6KA6 KD2 (human))	kinase still bound, per cent of control (DCLK2 (human))	kinase still bound, per cent of control (INSRR (human))	kinase still bound, per cent of control (RPS6KA2 KD2 (human))	kinase still bound, per cent of control (PLK1 (human))	kinase still bound, per cent of control (MYLK (human))	kinase still bound, per cent of control (PLK3 (human))	kinase still bound, per cent of control (DCLK1 (human))	kinase still bound, per cent of control (CAMKK2 (human))	kinase still bound, per cent of control (RPS6KA1 KD2 (human))	kinase still bound, per cent of control (IGF1R (human))	kinase still bound, per cent of control (SLK (human))	kinase still bound, per cent of control (PTK2B (human))	kinase still bound, per cent of control (TTK (human) [3])	kinase still bound, per cent of control (PTK2 (human))	kinase still bound, per cent of control (ALK (human))	also measured
CNS(=O)(=O)c1ccc(-c2ccc(C=C3C(=O)NC(=O)NC3=O)o2)cc1	–	–	–	–	–	–	–	–	–	–	–	–	–	–	–	–	–	–	residual activity (CDK11A (human)): 28%
COc1cc(C(=O)NC2CCN(C)CC2)ccc1Nc1ncc2c(n1)N(C1CCCC1)C(C)CC(=O)N2C (stereo not drawn)	3.8%	3.6%	12%	19%	26%	5.8%	19%	2.8%	0%	4%	24%	22%	32%	1.4%	13%	4.6%	0.4%	6.2%	IC50 (TTK (human) [1]): 5.04 µM; kinase still bound, per cent of control (DAPK3 (human)): 17%; kinase still bound, per cent of control (FER (human)): 31%; kinase still bound, per cent of control [2]: 22%; kinase still bound, per cent of control (DAPK1 (human)): 26%; kinase still bound, per cent of control (CLK2 (human)): 6.2%; kinase still bound, per cent of control (CAMK2G (human)): 34%; kinase still bound, per cent of control (CAMK1D (human)): 17%; kinase still bound, per cent of control (CAMK2A (human)): 21%; kinase still bound, per cent of control (STK10 (human)): 29%; Kd (TTK (human) [3]): 1430 nM; kinase still bound, per cent of control (PRKD3 (human)): 32%; kinase still bound, per cent of control (CLK1 (human)): 18%
COc1cc(N2CCC(N3CCN(C)CC3)CC2)ccc1Nc1ncc2c(n1)N(C1CCCC1)C(C)CC(=O)N2C (stereo not drawn)	1.6%	9%	33%	30%	33%	16%	7.2%	11%	5.9%	5.2%	33%	–	29%	5.6%	4.2%	2%	1.2%	5%	kinase still bound, per cent of control [4]: 32%; kinase still bound, per cent of control [5]: 34%; kinase still bound, per cent of control [6]: 27%; kinase still bound, per cent of control (PLK4 (human)): 26%; kinase still bound, per cent of control [7]: 34%; kinase still bound, per cent of control [8]: 30%; kinase still bound, per cent of control (ULK2 (human)): 24%
CC(C)Oc1cc(N2CCN(C)CC2)ccc1Nc1ncc2c(n1)N(C)c1ccccc1C(=O)N2	–	–	21%	5.3%	–	–	–	–	–	1.2%	–	14%	–	–	–	–	–	–	kinase still bound, per cent of control (FLT3 (human)): 10%; kinase still bound, per cent of control (MAPK7 (human)): 29%; kinase still bound, per cent of control (TNK2 (human)): 6.5%; kinase still bound, per cent of control [9]: 0.6%; kinase still bound, per cent of control (PIP5K1A (human)): 22%; kinase still bound, per cent of control (PTK6 (human)): 2.6%; kinase still bound, per cent of control [10]: 2.2%; kinase still bound, per cent of control [11]: 10%; kinase still bound, per cent of control [12]: 14%; kinase still bound, per cent of control (MYLK4 (human)): 2.1%; kinase still bound, per cent of control (DCLK3 (human)): 8.1%; kinase still bound, per cent of control [13]: 26%; kinase still bound, per cent of control [14]: 2.4%

Source: the kinase profiling compilation of Christmann-Franck et al. (2016)
